Reference: patent US20240423961A1, “1H-1,2,3-TRIAZOLE-4-CARBOXYLIC ACIDS FOR TREATMENT OF HYPEROXALURIA AND KIDNEY STONES” (CANTERO THERAPEUTICS, INC., priority 2021, published 2024)
Like-named read-outs stand apart in the source and are kept apart here.

Tests used:
[1] = Phase 1 SAD/MAD study: plasma pharmacokinetics of Compound 1a (LC-MS-MS, noncompartmental analysis); type: in vivo, human; conditions: for Cmax / Tmax / half-life / AUC(0-t) / AUC(0-inf): human, plasma
Procedure: Pharmacokinetics: Human K2-ethylenediaminetetraacetic acid (K2-EDTA) plasma samples were analyzed for Compound 1a by a validated method over a range of 1.0 to 1000 ng/mL based on the analysis of 100 μL of sample. Human plasma containing Compound 1a and the internal standard, Compound 1a-D4, was extracted using liquid-liquid extraction and analyzed by a Sciex API 4000 LC-MS-MS equipped with an HPLC column. The peak area of the m/z 370.2→298.0 Compound 1a product ion was measured against the peak area of the m/z 374.3→302.4 Compound 1a-D4 internal standard product ion. Quantitation was performed using a weighted 1/x^2 linear least squares regression analysis generated from calibration standards prepared on the day of extraction.
Pharmacokinetic analysis: Pharmacokinetic calculations based on Compound 1a plasma concentrations were performed using noncompartmental analysis in Phoenix WinNonlin (Certara, Princeton, New Jersey). […] Accumulation ratio based on Cmax was calculated as (Cmax,day 7)/(Cmax, day 1).
Subject disposition: Six cohorts of 6 to 8 subjects each (N=up to 48) were administered single doses of 40, 120, 360, 1,000, 2,000, and 3,000 mg of Compound 1a in Part A under fasting conditions. Following a 2-week washout, subjects in the 1,000 mg cohort were administered a second 1,000 mg single dose following a high-fat breakfast. Six cohorts of 8 healthy subjects each were administered multiple doses of 75 mg […] (qd), 125 mg every 12 hours (q12 h), 500 mg q12 h, 500 mg qd, 750 mg qd, and 1,000 mg qd for 7 days in the MAD Part B (FIG. 1).

glycolate oxidase (GO) = target: T1, glycolate oxidase (GO) (Homo sapiens, UniProt Q9UJM8); assay: Pharmacokinetic-pharmacodynamic (PK/PD) modeling of GO inhibition; conditions: PK/PD modeling of Phase 1 data
T1 construct: healthy adult volunteers received single doses of Compound 1a; from tissue; host or cells: liver of healthy adult human volunteers (in vivo, Phase 1 study)
T1 sequence (Q9UJM8 1-370): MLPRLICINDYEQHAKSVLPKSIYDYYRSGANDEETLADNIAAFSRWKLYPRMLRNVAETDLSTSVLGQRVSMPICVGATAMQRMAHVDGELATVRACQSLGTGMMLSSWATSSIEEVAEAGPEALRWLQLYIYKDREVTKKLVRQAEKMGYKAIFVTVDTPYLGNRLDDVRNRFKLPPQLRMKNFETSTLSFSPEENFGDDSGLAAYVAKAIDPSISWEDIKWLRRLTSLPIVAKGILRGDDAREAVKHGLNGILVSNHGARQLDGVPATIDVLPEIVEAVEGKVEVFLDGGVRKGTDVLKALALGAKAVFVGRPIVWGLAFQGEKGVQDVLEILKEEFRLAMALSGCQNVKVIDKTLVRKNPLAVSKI
Excerpt: This study provides dosing and safety information for Compound 1a in patients with PH1 and recurrent stone formers with hyperoxaluria due to hepatic overproduction of oxalate. Pharmacokinetic data supports once daily administration of Compound 1a and rapid onset of action. […] Details of the study are presented in Example 2.

[2] = po, 40 mg, SAD 40 mg oral, fasted, average
[3] = po, 120 mg, SAD 120 mg oral, fasted, average
[4] = po, 360 mg, SAD 360 mg oral, fasted, average
[5] = po, 1000 mg, SAD 1,000 mg oral, fasted, average
[6] = po, 1000 mg, SAD 1,000 mg oral, fed, average
[7] = po, 2000 mg, SAD 2,000 mg oral, fasted, average
[8] = po, 3000 mg, SAD 3,000 mg oral, fasted, average

O.O=C([O-])c1nn[nH]c1Oc1ccc(-c2ccc(C3CC(F)(F)C3)cc2)cc1.[Na+] [Compound 1a, sodium 5-((4′-(3,3-difluorocyclobutyl)-[1,1′-biphenyl]-4-yl)oxy)-1H-1,2,3-triazole-4-carboxylate monohydrate]
Cmax ([1]; oral, 3000 mg, single dose 3000 mg, healthy volunteers, geometric mean): 22.5 µg/mL
Tmax ([1]; oral, 3000 mg, single dose 3000 mg, healthy volunteers, geometric mean (geometric CV %), read-out: Tmax): 2.9 h
half-life ([1]; oral, 3000 mg, single dose 3000 mg, healthy volunteers, geometric mean (geometric CV %), read-out: t1/2 (converted)): 34 h
AUC(0-t) ([1]; oral, 3000 mg, single dose 3000 mg, healthy volunteers, geometric mean, read-out: AUClast): 225 µg·h/mL
Tmax ([1]; oral, single-dose administration of 40 mg to 3,000 mg, read-out: average plasma Tmax values across dose levels): 1.9 to 2.9 h
half-life ([1]; oral, single-dose administration of 40 mg to 3,000 mg, read-out: average t1/2 across dose levels): 21.9 to 33.7 h
AUC(0-inf) [1, 2]: 14 µg·h/mL
Cmax [1, 2]: 2.04 µg/mL
AUC(0-t) ([1]; po, 40 mg, SAD 40 mg oral, fasted, average, read-out: AUC0-24): 12.1 µg·h/mL
Tmax ([1]; po, 40 mg, SAD 40 mg oral, fasted, average, read-out: Tmax): 1.89 h
half-life ([1]; po, 40 mg, SAD 40 mg oral, fasted, average, read-out: t1/2 (converted)): 24.6 h
AUC(0-inf) [1, 3]: 41.4 µg·h/mL
Cmax [1, 3]: 5.02 µg/mL
half-life ([1]; po, 120 mg, SAD 120 mg oral, fasted, average, plasma (N = 5), read-out: t1/2 (converted)): 21.9 h
AUC(0-t) ([1]; po, 120 mg, SAD 120 mg oral, fasted, average, read-out: AUC0-24): 36.7 µg·h/mL
Tmax ([1]; po, 120 mg, SAD 120 mg oral, fasted, average, read-out: Tmax): 2.29 h
AUC(0-inf) [1, 4]: 83.3 µg·h/mL
Cmax [1, 4]: 10.5 µg/mL
AUC(0-t) ([1]; po, 360 mg, SAD 360 mg oral, fasted, average, read-out: AUC0-24): 74.1 µg·h/mL
Tmax ([1]; po, 360 mg, SAD 360 mg oral, fasted, average, read-out: Tmax): 2.28 h
half-life ([1]; po, 360 mg, SAD 360 mg oral, fasted, average, read-out: t1/2 (converted)): 25.9 h
AUC(0-inf) [1, 5]: 214 µg·h/mL
Cmax [1, 5]: 19.5 µg/mL
AUC(0-t) ([1]; po, 1000 mg, SAD 1,000 mg oral, fasted, average, read-out: AUC0-24): 174 µg·h/mL
Tmax ([1]; po, 1000 mg, SAD 1,000 mg oral, fasted, average, read-out: Tmax): 3 h
half-life ([1]; po, 1000 mg, SAD 1,000 mg oral, fasted, average, read-out: t1/2 (converted)): 26.8 h
AUC(0-inf) [1, 6]: 237 µg·h/mL
Cmax [1, 6]: 14.7 µg/mL
AUC(0-t) ([1]; po, 1000 mg, SAD 1,000 mg oral, fed, average, read-out: AUC0-24): 180 µg·h/mL
Tmax ([1]; po, 1000 mg, SAD 1,000 mg oral, fed, average, read-out: Tmax): 5.86 h
half-life ([1]; po, 1000 mg, SAD 1,000 mg oral, fed, average, read-out: t1/2 (converted)): 25.2 h
AUC(0-inf) [1, 7]: 312 µg·h/mL
Cmax [1, 7]: 25.6 µg/mL
AUC(0-t) ([1]; po, 2000 mg, SAD 2,000 mg oral, fasted, average, read-out: AUC0-24): 253 µg·h/mL
Tmax ([1]; po, 2000 mg, SAD 2,000 mg oral, fasted, average, read-out: Tmax): 2.94 h
half-life ([1]; po, 2000 mg, SAD 2,000 mg oral, fasted, average, read-out: t1/2 (converted)): 23.4 h
AUC(0-inf) [1, 8]: 226 µg·h/mL
Cmax [1, 8]: 22.5 µg/mL
AUC(0-t) ([1]; po, 3000 mg, SAD 3,000 mg oral, fasted, average, read-out: AUC0-24): 184 µg·h/mL
Tmax ([1]; po, 3000 mg, SAD 3,000 mg oral, fasted, average, read-out: Tmax): 2.94 h
half-life ([1]; po, 3000 mg, SAD 3,000 mg oral, fasted, average, read-out: t1/2 (converted)): 33.7 h
Overall exposure, fed versus fasted (food effect) ([1]; single dose of 1,000 mg, same cohort, 2-week washout): slightly lower under fed than under fasted conditions
inhibition of GO (glycolate oxidase (GO)): up to 97%
